Laboratory results reported in patent US10426772B2, “Use of ergot alkaloids as an anthelmintic agent” (priority 2016, dated 2019).

Target: Sm.5HTR (Schistosoma mansoni, UniProt A0A173FEI8)
Assay: cell-based
Method: HEK293 cells (ATCC CRL-1573.3) were cultured in growth media consisting of DMEM supplemented with GlutaMAX (Gibco cat #10566016)+10% heat inactivated fetal bovine serum and penicillin-streptomycin (100 units/mL, ThermoFisher). Stable cell lines for the pGloSensor-22F cAMP Plasmid (Promega) and schistosome 5HTRs in pcDNA3.1(−) were selected with hygromycin (200 μg/mL) and G418 (400 μg/mL). The correct identity of each stably expressed sequence was verified by isolating total RNA from each stable line (TRIzol Reagent, Ambion) and amplifying the sequence of interest with gene specific primers flanking the 5′ and 3′ regions of the cds (SuperScript® III One-Step RT-PCR System, Invitrogen). PCR products were ligated into a TA cloning vector (pGEM-T Easy, Promega) and sequenced.
HEK293 lines stably expressing both the 22F cAMP sensor and Sm.5HTR were cultured in growth media supplemented with 10% dialyzed FRS. For cAMP assays in 96 well format, cells cultured in T-75 flasks were trypsinized (TrypLE Express, Gibco) and plated in solid white 96 well plates (Costar cat #3917) the day prior to assay at a density of 2.5×10^4 cells/well. The following day media was removed and replaced with assay buffer consisting of HBSS buffered with HEPES (20 mM, pH 7.4)+BSA (0.1% w/v) and D-luciferin sodium salt (1 mg/mL, Gold Biotechnology). Plates were equilibrated at room temperature for 1 hour, at which point 3-Isobutyl-1-methylxanthine (IBMX 200 μM, Sigma Aldrich) was added. Plates were equilibrated a further 30 minutes prior to test compound addition. […] Readings performed in 384 well format were modified so that cells were assayed in suspension. Cells were grown to 70% confluence in T-75 flasks, trypsinized and pelleted (300 RCF×5 minutes). Media was removed and cells were resuspended in 25 mL assay buffer supplemented with IBMX (200 μM). A 96 channel semi-automated pipet (Eppendorf epMotion 96) delivered 55 μL of cell suspension per well (5000 cells/well) into solid white 384 plates (Corning 3574).

Sequence of Sm.5HTR (A0A173FEI8 entry or part of it): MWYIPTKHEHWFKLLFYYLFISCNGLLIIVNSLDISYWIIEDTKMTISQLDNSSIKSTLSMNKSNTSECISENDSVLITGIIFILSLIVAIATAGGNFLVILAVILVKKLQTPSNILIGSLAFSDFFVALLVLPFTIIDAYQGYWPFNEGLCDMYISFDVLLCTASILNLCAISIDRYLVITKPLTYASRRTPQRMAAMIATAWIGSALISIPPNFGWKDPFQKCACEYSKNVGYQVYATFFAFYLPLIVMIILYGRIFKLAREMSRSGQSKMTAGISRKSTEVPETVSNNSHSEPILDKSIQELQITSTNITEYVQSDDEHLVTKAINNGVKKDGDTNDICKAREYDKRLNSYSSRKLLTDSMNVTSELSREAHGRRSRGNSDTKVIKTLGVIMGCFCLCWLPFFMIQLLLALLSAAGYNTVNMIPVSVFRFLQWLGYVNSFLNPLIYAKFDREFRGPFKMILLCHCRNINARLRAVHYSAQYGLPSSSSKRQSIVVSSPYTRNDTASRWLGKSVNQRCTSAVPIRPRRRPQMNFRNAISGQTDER

Work on CN1C[C@H](C(=O)N[C@]2(C)O[C@@]3(O)[C@@H]4CCCN4C(=O)[C@H](Cc4ccccc4)N3C2=O)C=C2c3cccc4[nH]cc(c34)C[C@H]21 [ergotamine] yielded an EC50 of 43 ± 13 nM and an Emax (HEK293, read-out: Sm.5HTR Emax) of 95 ± 5%.
